One molecule from patent publication US8809391B2, “Agent for treating Parkinson's disease” (OOO “Tomskaya Farmatsevticheskaya Fabrika”, priority 2009, dated 2014) can be followed below.

A short description of series [1]: Acute toxicity, single intragastric administration, Kerber method. Particulars: mouse, in vivo, po; white outbred mice 20-22 g, single intragastric administration, Kerber method. The source says:
(§1) The acute toxicity of the compound 1a was studied in white outbred mice weighting 20-22 g following single intragastric administration using Kerber method.

For a further series, the system named is white outbred mice. Described as above. Particulars: mouse, in vivo.
Excerpt: as §1

Take `C=C(C)C1CC=C(C)C(O)C1O` (centres unmarked) [1a, 3-methyl-6-(1-methylethenyl)cyclohex-3-ene-1,2-diol]: the LD50 in series [1] amounted to 4250 mg/kg. Moreover, the “acute toxicity (in words)” value in the series on white outbred mice is recorded as “low toxicity”.

As usually defined, the LD50 is the dose at which mortality reaches 50%. High values mean lower toxicity, low ones greater toxicity.
